Values of other authors in US8568704B2, “Dermatological/pharmaceutical compositions comprising benzoyl peroxide, at least one naphthoic acid compound and at least one polyurethane polymer” (Galderma Research & Development, priority 2006, dated 2013).
Where two headings read alike, the source gives them in different places. Values belong to the compound of their own block, whether it stands above or below them.

How the values were obtained:
[1] = in presence of benzoyl peroxide-based formulation
[2] = 40° C.

degradation of adapalene ([1]; for 24 hours): no degradation
Structure (SMILES): COc1ccc(-c2ccc3cc(C(=O)O)ccc3c2)cc1C12CC3CC(CC(C3)C1)C2 [adapalene, 6-[3-(1-adamantyl)-4-methoxyphenyl]-2-naphthoic acid]

tretinoin degraded ([1]; within 2 hours): 50%
tretinoin degraded ([1]; within 24 hours): 95%
Structure (SMILES): CC1=C(/C=C/C(C)=C/C=C/C(C)=C/C(=O)O)C(C)(C)CCC1 [tretinoin]

Structure (SMILES): O=C(OOC(=O)c1ccccc1)c1ccccc1 [benzoyl peroxide]
benzoyl peroxide degradation time ([2]; in ethanol): 29 days
benzoyl peroxide degradation time ([2]; in propylene glycol): 53 days
